Where two headings read alike, the source gives them in different places.
Molecular target: T1, BRM (Homo sapiens, UniProt P51531)
T1 construct: In-Cell Western Screen of BRM Degradation in SW1573 Cells; endogenous in cells; host or cells: SW1573
Assay: In-cell Western screen of BRM degradation in SW1573 cells (Dmax and DC50)
Format: cell-based
Details: for Dmax: SW1573, % degraded, when tested at the top concentration of between 0.3 and 10 μM, read-out: BRM Dmax (%); for DC50: read-out: BRM DC50
Summary of the method: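 After adhering overnight, cells received compound for 18-20 hours. They were then washed in cold DPBS, fixed with 4% PFA for 20 min and permeabilized for 30 min. Blocking and fluorescent secondary staining followed before imaging.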

T1 sequence (P51531 whole entry): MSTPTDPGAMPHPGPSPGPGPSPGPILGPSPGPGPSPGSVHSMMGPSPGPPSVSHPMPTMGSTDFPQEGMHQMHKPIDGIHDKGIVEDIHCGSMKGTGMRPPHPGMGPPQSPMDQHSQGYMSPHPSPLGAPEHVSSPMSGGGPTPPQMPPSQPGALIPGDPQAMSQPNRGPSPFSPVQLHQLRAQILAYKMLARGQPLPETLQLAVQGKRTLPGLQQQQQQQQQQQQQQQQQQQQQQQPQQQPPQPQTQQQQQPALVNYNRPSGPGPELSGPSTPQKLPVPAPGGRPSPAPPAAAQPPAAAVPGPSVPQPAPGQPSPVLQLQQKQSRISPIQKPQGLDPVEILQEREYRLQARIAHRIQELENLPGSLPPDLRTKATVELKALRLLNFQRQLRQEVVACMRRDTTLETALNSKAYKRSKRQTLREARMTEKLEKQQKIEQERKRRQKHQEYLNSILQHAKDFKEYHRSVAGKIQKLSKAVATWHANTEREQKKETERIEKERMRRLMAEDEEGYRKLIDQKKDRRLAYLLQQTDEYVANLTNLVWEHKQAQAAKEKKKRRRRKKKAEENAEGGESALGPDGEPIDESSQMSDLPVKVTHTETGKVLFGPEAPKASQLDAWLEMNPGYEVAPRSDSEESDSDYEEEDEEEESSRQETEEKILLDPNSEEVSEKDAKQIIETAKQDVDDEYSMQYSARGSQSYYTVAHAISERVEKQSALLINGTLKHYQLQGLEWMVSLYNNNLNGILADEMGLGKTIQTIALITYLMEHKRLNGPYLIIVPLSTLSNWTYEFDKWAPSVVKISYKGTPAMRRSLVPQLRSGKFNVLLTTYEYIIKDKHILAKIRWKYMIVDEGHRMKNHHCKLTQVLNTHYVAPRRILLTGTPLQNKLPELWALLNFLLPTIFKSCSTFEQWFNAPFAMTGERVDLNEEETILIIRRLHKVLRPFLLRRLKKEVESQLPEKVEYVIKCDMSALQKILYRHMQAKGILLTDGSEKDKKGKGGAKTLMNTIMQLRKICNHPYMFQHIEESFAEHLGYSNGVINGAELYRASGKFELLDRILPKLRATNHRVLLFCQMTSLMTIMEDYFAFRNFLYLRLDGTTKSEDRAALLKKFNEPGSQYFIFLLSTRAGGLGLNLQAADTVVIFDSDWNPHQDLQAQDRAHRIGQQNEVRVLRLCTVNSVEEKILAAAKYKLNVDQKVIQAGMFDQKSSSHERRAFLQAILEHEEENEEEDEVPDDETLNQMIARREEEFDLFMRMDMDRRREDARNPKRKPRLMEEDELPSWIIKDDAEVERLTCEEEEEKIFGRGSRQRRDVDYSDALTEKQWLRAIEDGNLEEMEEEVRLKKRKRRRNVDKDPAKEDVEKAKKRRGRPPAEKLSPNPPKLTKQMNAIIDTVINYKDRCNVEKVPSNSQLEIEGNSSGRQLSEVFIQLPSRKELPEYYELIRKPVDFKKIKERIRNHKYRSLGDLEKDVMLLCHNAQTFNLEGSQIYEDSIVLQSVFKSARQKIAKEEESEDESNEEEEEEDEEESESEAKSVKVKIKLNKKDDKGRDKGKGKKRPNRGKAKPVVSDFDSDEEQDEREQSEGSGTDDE

SMILES	Dmax	DC50 (target protein degradation)	DC50 (degradation of BRM)
Cc1ncsc1-c1ccc([C@H](C)NC(=O)[C@@H]2C[C@@H](O)CN2C(=O)[C@@H](c2cc(OCCN3CCC(O[C@H]4C[C@H](OCC#CCn5cc(-c6cc(-c7ccccc7O)nnc6N)cn5)C4)CC3)no2)C(C)C)cc1 [compound 395, (2S,4R)-1-((R)-2-(3-(2-(4-((1r,3R)-3-((4-(4-(3-amino-6-(2-hydroxyphenyl)pyridazin-4-yl)-1H-pyrazol-1-yl)but-2-yn-1-yl)oxy)cyclobutoxy)piperidin-1-yl)ethoxy)isoxazol-5-yl)-3-methylbutanoyl)-4-hydroxy-N-((S)-1-(4-(4-methylthiazol-5-yl)phenyl)ethyl)pyrrolidine-2-carboxamide]	> 75%	< 2.5 nM	–
Cc1ncsc1-c1ccc([C@H](C)NC(=O)[C@@H]2C[C@@H](O)CN2C(=O)[C@@H](c2cc(OCCN[C@H]3CC[C@H](O[C@H]4C[C@H](Oc5cc(N6C7CCC6CN(c6cc(-c8ccccc8O)nnc6N)C7)ccn5)C4)CC3)no2)C(C)C)cn1 [compound 396, (2S,4R)-1-((2R)-2-(3-(2-(((1R,4R)-4-((1r,3R)-3-((4-(3-(3-amino-6-(2-hydroxyphenyl)pyridazin-4-yl)-3,8-diazabicyclo[3.2.1]octan-8-yl)pyridin-2-yl)oxy)cyclobutoxy)cyclohexyl)amino)ethoxy)isoxazol-5-yl)-3-methylbutanoyl)-4-hydroxy-N-((S)-1-(6-(4-methylthiazol-5-yl)pyridin-3-yl)ethyl)pyrrolidine-2-carboxamide]	> 75%	2.5 to 10 nM	–
Cc1nccn1-c1ccc([C@H](C)NC(=O)[C@@H]2C[C@@H](O)CN2C(=O)[C@H](c2cc(OCCN3CCC(O[C@H]4C[C@H](Oc5cc(N6C7CCC6CN(c6cc(-c8ccccc8O)nnc6N)C7)ccn5)C4)CC3)no2)C(C)C)cn1 [compound 397, (2S,4R)-1-((2S)-2-(3-(2-(4-((1r,3S)-3-((4-(3-(3-amino-6-(2-hydroxyphenyl)pyridazin-4-yl)-3,8-diazabicyclo[3.2.1]octan-8-yl)pyridin-2-yl)oxy)cyclobutoxy)piperidin-1-yl)cthoxy)isoxazol-5-yl)-3-methylbutanoyl)-4-hydroxy-N-((S)-1-(6-(2-methyl-1H-imidazol-1-yl)pyridin-3-yl)ethyl)pyrrolidine-2-carboxamide]	–	> 30 nM	–
Cc1nccn1-c1ccc([C@H](C)NC(=O)[C@@H]2C[C@@H](O)CN2C(=O)[C@@H](c2cc(OCCN3CCC(O[C@H]4C[C@H](Oc5cc(N6C7CCC6CN(c6cc(-c8ccccc8O)nnc6N)C7)ccn5)C4)CC3)no2)C(C)C)cn1 [compound 398, (2S,4R)-1-((2R)-2-(3-(2-(4-((1r,3R)-3-((4-(3-(3-amino-6-(2-hydroxyphenyl)pyridazin-4-yl)-3,8-diazabicyclo[3.2.1]octan-8-yl)pyridin-2-yl)oxy)cyclobutoxy)piperidin-1-yl)ethoxy)isoxazol-5-yl)-3-methylbutanoyl)-4-hydroxy-N-((S)-1-(6-(2-methyl-1H-imidazol-1-yl)pyridin-3-yl)ethyl)pyrrolidine-2-carboxamide]	> 75%	< 2.5 nM	–
Cc1ncsc1-c1ccc([C@H](C)NC(=O)[C@@H]2C[C@@H](O)CN2C(=O)[C@H](c2cc(OCC#Cc3ncc(O[C@H]4C[C@H](Oc5cc(N6C7CCC6CN(c6cc(-c8ccccc8O)nnc6N)C7)ccn5)C4)cn3)no2)C(C)C)cn1 [compound 399, (2S,4R)-1-((2S)-2-(3-((3-(5-((1r,3S)-3-((4-(3-(3-amino-6-(2-hydroxyphenyl)pyridazin-4-yl)-3,8-diazabicyclo[3.2.1]octan-8-yl)pyridin-2-yl)oxy)cyclobutoxy)pyrimidin-2-yl)prop-2-yn-1-yl)oxy)isoxazol-5-yl)-3-methylbutanoyl)-4-hydroxy-N-((S)-1-(6-(4-methylthiazol-5-yl)pyridin-3-yl)ethyl)pyrrolidine-2-carboxamide]	–	> 30 nM	–
Cc1ncsc1-c1ccc([C@H](C)NC(=O)[C@@H]2C[C@@H](O)CN2C(=O)[C@@H](c2cc(OCC#Cc3ncc(O[C@H]4C[C@H](Oc5cc(N6C7CCC6CN(c6cc(-c8ccccc8O)nnc6N)C7)ccn5)C4)cn3)no2)C(C)C)cn1 [compound 400, (2S,4R)-1-((2R)-2-(3-((3-(5-((1r,3R)-3-((4-(3-(3-amino-6-(2-hydroxyphenyl)pyridazin-4-yl)-3,8-diazabicyclo[3.2.1]octan-8-yl)pyridin-2-yl)oxy)cyclobutoxy)pyrimidin-2-yl)prop-2-yn-1-yl)oxy)isoxazol-5-yl)-3-methylbutanoyl)-4-hydroxy-N-((S)-1-(6-(4-methylthiazol-5-yl)pyridin-3-yl)ethyl)pyrrolidine-2-carboxamide]	> 75%	< 2.5 nM	–
Cc1ncsc1-c1ccc([C@H](C)NC(=O)[C@@H]2C[C@@H](O)CN2C(=O)[C@H](c2cc(N3CCN(CCN4CCC(O[C@H]5C[C@H](Oc6cc(N7C8CCC7CN(c7cc(-c9ccccc9O)nnc7N)C8)ccn6)C5)CC4)CC3)no2)C(C)C)cn1 [compound 401, (2S,4R)-1-((2S)-2-(3-(4-(2-(4-((1r,3r)-3-((4-(3-(3-amino-6-(2-hydroxyphenyl)pyridazin-4-yl)-3,8-diazabicyclo[3.2.1]octan-8-yl)pyridin-2-yl)oxy)cyclobutoxy)piperidin-1-yl)ethyl)piperazin-1-yl)isoxazol-5-yl)-3-methylbutanoyl)-4-hydroxy-N-((S)-1-(6-(4-methylthiazol-5-yl)pyridin-3-yl)ethyl)pyrrolidine-2-carboxamide]	–	–	> 30 nM
Cc1ncsc1-c1ccc([C@H](C)NC(=O)[C@@H]2C[C@@H](O)CN2C(=O)[C@@H](c2cc(N3CCN(CCN4CCC(O[C@H]5C[C@H](Oc6cc(N7C8CCC7CN(c7cc(-c9ccccc9O)nnc7N)C8)ccn6)C5)CC4)CC3)no2)C(C)C)cn1 [compound 402, (2S,4R)-1-((2R)-2-(3-(4-(2-(4-((1r,3r)-3-((4-(3-(3-amino-6-(2-hydroxyphenyl)pyridazin-4-yl)-3,8-diazabicyclo[3.2.1]octan-8-yl)pyridin-2-yl)oxy)cyclobutoxy)piperidin-1-yl)ethyl)piperazin-1-yl)isoxazol-5-yl)-3-methylbutanoyl)-4-hydroxy-N-((S)-1-(6-(4-methylthiazol-5-yl)pyridin-3-yl)ethyl)pyrrolidine-2-carboxamide]	> 75%	–	< 2.5 nM
Cc1ncsc1-c1ccc([C@H](C)NC(=O)[C@@H]2C[C@@H](O)CN2C(=O)[C@H](c2cc(N3CCC(O[C@H]4C[C@H](Oc5cc(N6C7CCC6CN(c6cc(-c8ccccc8O)nnc6N)C7)ccn5)C4)CC3)no2)C(C)C)cc1 [compound 403, (2S,4R)-1-((2S)-2-(3-(4-((1r,3S)-3-((4-(3-(3-amino-6-(2-hydroxyphenyl)pyridazin-4-yl)-3,8-diazabicyclo[3.2.1]octan-8-yl)pyridin-2-yl)oxy)cyclobutoxy)piperidin-1-yl)isoxazol-5-yl)-3-methylbutanoyl)-4-hydroxy-N-((S)-1-(4-(4-methylthiazol-5-yl)phenyl)ethyl)pyrrolidine-2-carboxamide]	> 75%	–	2.5 to 10 nM
Cc1ncsc1-c1ccc([C@H](C)NC(=O)[C@@H]2C[C@@H](O)CN2C(=O)[C@@H](c2cc(N3CCC(O[C@H]4C[C@H](Oc5cc(N6C7CCC6CN(c6cc(-c8ccccc8O)nnc6N)C7)ccn5)C4)CC3)no2)C(C)C)cc1 [compound 404, (2S,4R)-1-((2R)-2-(3-(4-((1r,3R)-3-((4-(3-(3-amino-6-(2-hydroxyphenyl)pyridazin-4-yl)-3,8-diazabicyclo[3.2.1]octan-8-yl)pyridin-2-yl)oxy)cyclobutoxy)piperidin-1-yl)isoxazol-5-yl)-3-methylbutanoyl)-4-hydroxy-N-((S)-1-(4-(4-methylthiazol-5-yl)phenyl)ethyl)pyrrolidine-2-carboxamide]	> 75%	–	< 2.5 nM
Cc1ncsc1-c1ccc([C@H](C)NC(=O)[C@@H]2C[C@@H](O)CN2C(=O)[C@@H](c2cc(OCCN3CCC(C(=O)N4CC(Oc5cc(N6C7CCC6CN(c6cc(-c8ccccc8O)nnc6N)C7)ccn5)C4)CC3)no2)C(C)C)cc1 [compound 405, (2S,4R)-1-((2R)-2-(3-(2-(4-(3-((4-(3-(3-amino-6-(2-hydroxyphenyl)pyridazin-4-yl)-3,8-diazabicyclo[3.2.1]octan-8-yl)pyridin-2-yl)oxy)azetidine-1-carbonyl)piperidin-1-yl)ethoxy)isoxazol-5-yl)-3-methylbutanoyl)-4-hydroxy-N-((S)-1-(4-(4-methylthiazol-5-yl)phenyl)ethyl)pyrrolidine-2-carboxamide]	> 75%	–	< 2.5 nM
Cc1ncsc1-c1ccc([C@H](C)NC(=O)[C@@H]2C[C@@H](O)CN2C(=O)[C@@H](c2cc(OCCN3CCC(CN4CC(Oc5cc(N6C7CCC6CN(c6cc(-c8ccccc8O)nnc6N)C7)ccn5)C4)CC3)no2)C(C)C)cc1 [compound 406, (2S,4R)-1-((2R)-2-(3-(2-(4-((3-((4-(3-(3-amino-6-(2-hydroxyphenyl)pyridazin-4-yl)-3,8-diazabicyclo[3.2.1]octan-8-yl)pyridin-2-yl)oxy)azetidin-1-yl)methyl)piperidin-1-yl)ethoxy)isoxazol-5-yl)-3-methylbutanoyl)-4-hydroxy-N-((S)-1-(4-(4-methylthiazol-5-yl)phenyl)ethyl)pyrrolidine-2-carboxamide]	–	–	> 30 nM
Cc1ncsc1-c1ccc([C@H](C)NC(=O)[C@@H]2C[C@@H](O)CN2C(=O)[C@H](c2cc(OCCN3CCN(CCO[C@H]4C[C@H](Oc5cc(N6C7CCC6CN(c6cc(-c8ccccc8O)nnc6N)C7)ccn5)C4)CC3)no2)C(C)C)cc1 [compound 407, (2S,4R)-1-((2S)-2-(3-(2-(4-(2-((1r,3r)-3-((4-(3-(3-amino-6-(2-hydroxyphenyl)pyridazin-4-yl)-3,8-diazabicyclo[3.2.1]octan-8-yl)pyridin-2-yl)oxy)cyclobutoxy)ethyl)piperazin-1-yl)ethoxy)isoxazol-5-yl)-3-methylbutanoyl)-4-hydroxy-N-((S)-1-(4-(4-methylthiazol-5-yl)phenyl)ethyl)pyrrolidine-2-carboxamide]	–	–	> 30 nM

Source: US12539292B2, “BRM targeting compounds and associated methods of use” (Arvinas Operations, Inc., priority 2018, dated 2026)
